Reference: patent publication US10730857B2, “Benzocyanine compounds” (Pierce Biotechnology, Inc., priority 2011, dated 2020)

Tests used:
[1] = Absorbance/emission spectral properties and fluorescence intensity of the dyes; type: physicochemical; details: 10 μg/ml in PBS buffer pH 7.2, FIG. 1
Method: Emission/excitation profiles for inventive and commercial compounds was determined by reconstituting the compounds in DMF at 10 mg/ml and then diluting in PBS buffer pH 7.2 to 10 μg/ml.

[2] = molecular target: streptavidin (SA) (Streptomyces avidinii, UniProt P22629); test: Labeling efficiency (degree of labeling) of streptavidin
Method: Inventive and commercial compounds, each as the NHS ester, were conjugated to goat anti-mouse (GAM) antibodies, goat anti-rabbit (GAR) antibodies, and streptavidin (SA). GAM, GAR, and SA, at a concentration of 10 mg/ml in phosphate buffered saline (PBS), were dialyzed against 50 mM borate buffer, pH 8.5. […]
The labeled compounds, also termed dyes or labels, were subjected to Pierce Dye Removal Resin (PDDR) to remove the unlabeled (free) compound; 100 μl of the packed resin was used per mg of protein purified. The purified antibody-labeled dyes were then diluted 1:50 in PBS and scanned for absorbance from 700 nm to 230 nm to determine the protein concentration, and to determine the mole dye to mole protein ratio. Each conjugate was diluted 1:10 in 50% glycerol and heated in the presence of 10 mM dithiothreitol (DTT) for 5 min at 95° C., then separated by electrophoresis on polyacrylamide gels in the presence of sodium dodecyl sulfate (SDS-PAGE). The gels were scanned using the Typhoon 9400 Imager to verify removal of the unconjugated compound. Labeling efficiency was compared, with results showing degree of labeling below.

[3] = test system: lamin A in A549 cells; test: Immunofluorescence, mouse anti-lamin A, A549 cells (FIG. 15); type: cell-based; details: GAM conjugates at 4× to 12× molar excess
Method: The inventive compounds were evaluated for immunofluorescence in cell based assays using the following protocol. Frozen A549 cell plates stored at −20° C. were placed for 30 min 50° C. Storage buffer (PBS) was removed and the cells were permeabilized for 15 min (100 μl/well) with 0.1% Triton-X100 in 1×PBS buffer. Plates were blocked for 30 min in 2% BSA in 1×PBS-0.1% Trion-X100. Primary antibodies diluted in 2% BSA in 1×PBS-0.1% Trion-X100 were added to the plates (column 1-11; column 12 included only blocker) and incubated […]. Mouse anti-lamin A was added at 1 μg/ml and rabbit anti-lamin B1 was added at 3 μg/ml. After overnight incubation, the antibody solution was removed from the plates and the plates were washed with PBS-0.5% Tween-20 (2×100 μl/well). GAM and GAR secondary antibodies labeled with DyLight 680-NHS, DyLight 680B-NHS, 679 Compound 1-NHS and Company B Compound-NHS were diluted to 4 μg/ml in PBS, added and incubated for one hour at room temperature. The plates were then washed three times with 100 μl/well PBS, and Hoechst stain diluted to 0.1 μg/ml in PBS was added to each well (100 μl/well). The plates were scanned on ArrayScan Plate Reader for imaging and quantitation.

[4] = test system: lamin A in U20S cells; test: Immunofluorescence, mouse anti-lamin A, U20S cells (FIG. 16); type: cell-based
Method: (§1) The inventive compounds and commercial dye were evaluated for immunofluorescence in a second cell based assay using the following protocol. Frozen U20S cell plates stored at −20° C. were placed overnight at 4° C. Storage buffer (PBS) was removed and the cells were permeabilized for 15 min (100 μl/well) with 0.1% Triton-X100 in 1×PBS buffer. Plates were blocked for 30 min in 2% BSA in 1×PBS-0.1% Trion-X100. Primary antibodies diluted in 2% BSA in 1×PBS-0.1% Trion-X100 were added to the plates (column 1-11; column 12 included only blocker) and incubated five hours at room temperature. Mouse anti-lamin A was added at 2 μg/ml and rabbit anti-lamin B1 was added at 4 μg/ml. After incubation, the antibody solution was removed from the plates and the plates were washed PBS-0.5% Tween-20 (2×100 μl/well). Next, GAM and GAR secondary antibodies labeled with DyLight 680-NHS, DyLight 680B-NHS, 679 Compound 1-NHS, and Cy5.5 Mono Ester were diluted to 4 μg/ml in PBS and incubated with the cells for one hour at room temperature. GAM and GAR conjugated to DyLight 680-NHS, DyLight 680B-NHS, 679 Compound 1-NHS, and Company B Compound at 10× molar excess were diluted to 4 μg/ml in PBS and then serially diluted 1:1 in the plate to the following concentrations: 2 μg/ml, 1 μg/ml, 0.5 μg/ml, 0.25 μg/ml, 0.125 μg/ml and/or 0.0625 μg/ml. The plates were washed 3× with 100 μl/well PBS, and Hoechst stain diluted to 0.1 μg/ml in PBS was added to each well (100 μl/well). The plates were scanned on ArrayScan Plate Reader for imaging and quantitation.

[5] = test system: lamin B1 in U20S cells; test: Immunofluorescence, rabbit anti-lamin B1, U20S cells, GAR conjugates; type: cell-based
Method: as §1, with “GAM and GAR conjugated to DyLight 680-NHS, DyLight 680B-NHS, 679 Compound 1-NHS, and Company B Compound at 10× molar excess were diluted to 4 μg/ml in PBS and then serially diluted 1:1 in the plate to the following concentrations: 2 μg/ml, 1 μg/ml, 0.5 μg/ml, 0.25 μg/ml, 0.125 μg/ml and/or 0.0625 μg/ml. The plates were washed 3× with 100 μl/well PBS, and Hoechst stain diluted to 0.1 μg/ml in PBS was added to each well (100 μl/well).” left out

Sequence of streptavidin (SA) (P22629 25-183, species assumed): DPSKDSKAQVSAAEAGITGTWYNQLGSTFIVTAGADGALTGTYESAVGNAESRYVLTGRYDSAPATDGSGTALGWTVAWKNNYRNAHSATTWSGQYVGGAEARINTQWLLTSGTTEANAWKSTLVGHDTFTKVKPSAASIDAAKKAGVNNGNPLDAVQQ

SMILES: COCC[N+]1=C(/C=C/C=C/C=C2/N(CCCCCC(=O)O)c3ccc4c(S(=O)(=O)[O-])cc(S(=O)(=O)[O-])cc4c3C2(C)C)C(C)(CCCS(=O)(=O)[O-])c2c1ccc1c(S(=O)(=O)[O-])cc(S(=O)(=O)[O-])cc21.[Na+].[Na+].[Na+].[Na+] (centres unmarked) [679 Compound 1, 6-((E)-2-((2E,4E)-5-(3-(2-methoxyethyl)-1-methyl-6,8-disulfonato-1-(3-sulfonatopropyl)-1H-benzo[e]indol-3-ium-2-yl)penta-2,4-dien-1-ylidene)-1,1-dimethyl-6,8-disulfonato-1H-benzo[e]indol-3(2H)-yl)hexanoate]
- Max Abs ([1]; Cary UV spectrophotometer): 679 nm
- Max E ([1]; emission, Tecan Safire): 704 nm
- degree of labeling ([2]; SA-6X molar excess): 4.0
- degree of labeling ([2]; SA-8X molar excess): 5.0
- performance in immunofluorescence (in words) [3]: very similar performance to corresponding DyLight 680B conjugates
- Mean Total Intensity 2X ([4]; GAM conjugated at 2X molar excess, FIG. 16): 232482
- Mean Total Intensity 3X ([4]; GAM conjugated at 3X molar excess, FIG. 16): 263580
- Mean Total Intensity 4X ([4]; GAM conjugated at 4X molar excess, FIG. 16): 330865
- S/B (in words) ([4]; GAM conjugates at the low molar excesses): comparable to each other and to DyLight 680
- Overall fluorescence signal intensity (in words) ([5]; GAR conjugates): about two times higher compared to DyLight 680
- S/B (in words) ([5]; GAR labeled at 2×, 3× or 4× molar excess): comparable to each other and to DyLight 680 conjugates
